Patent publication US9655887B2, “Pharmaceutical composition and the use thereof, and application regime of said pharmaceutical composition for on-demand contraception” (BAYER PHARMA AKTIENGESELLSCHAFT, priority 2013, dated 2017)

Target: EP2 subtype of the human PGE2 receptor (hEP2 receptor) (Homo sapiens, UniProt P43116)
Assay: cAMP antagonism test, human prostaglandin E2 (subtype EP2) receptor signal
Assay type: cell-based
In short: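 Cells (625000 cells/ml, mixed with cAMP-d2) were preincubated 20 min at RT with compound ([…]). They were then stimulated 60 min at RT with a 3× PGE2 solution (1.5 nM) in PBS-IBMX and lysed for 20 min. cAMP was read by HTRF as the 665/620 nm ratio ×10000, with antagonism seen as a rise in FRET signal.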

EP2 subtype of the human PGE2 receptor (hEP2 receptor), sequence (P43116 whole entry): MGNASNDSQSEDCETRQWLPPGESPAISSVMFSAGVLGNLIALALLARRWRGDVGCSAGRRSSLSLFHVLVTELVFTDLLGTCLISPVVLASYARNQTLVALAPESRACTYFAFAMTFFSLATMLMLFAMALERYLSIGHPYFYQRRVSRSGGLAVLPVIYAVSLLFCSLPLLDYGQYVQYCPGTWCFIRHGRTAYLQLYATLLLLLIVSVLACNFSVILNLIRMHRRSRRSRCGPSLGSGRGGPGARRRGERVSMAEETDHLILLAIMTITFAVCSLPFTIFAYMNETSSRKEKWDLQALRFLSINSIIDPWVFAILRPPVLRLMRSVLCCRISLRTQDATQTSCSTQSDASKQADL

SMILES | IC50
COCCNC(=O)c1ccc2nn(CC3CCN(C(=O)c4ccc(Oc5cccc(C(F)(F)F)n5)cc4)CC3)cc2c1C [Example E165, N-(2-methoxyethyl)-4-methyl-2-{[1-(4-{[6-(trifluoromethyl)pyridin-2-yl]oxy}benzoyl)-piperidin-4-yl]methyl}-2H-indazole-5-carboxamide] | > 50 nM
COCCNC(=O)c1ccc2nn(CC3CCN(C(=O)c4ccc(-c5ccc(OC)cc5)cc4)CC3)cc2c1C [Example E166, 2-({1-[(4′-methoxybiphenyl-4-yl)carbonyl]piperidin-4-yl}methyl)-N-(2-methoxyethyl)-4-methyl-2H-indazole-5-carboxamide] | > 50 nM
COCCNC(=O)c1ccc2nn(CC3CCN(C(=O)c4ccc(Oc5cccc(C(F)(F)F)c5)cc4)CC3)cc2c1C [Example E168, N-(2-methoxyethyl)-4-methyl-2-[(1-{4-[3-(trifluoromethyl)phenoxy]benzoyl}piperidin-4-yl)methyl]-2H-indazole-5-carboxamide] | > 50 nM
COCCNC(=O)c1ccc2nn(CC3CCN(C(=O)c4ccc(Oc5ccc(Cl)cn5)cc4)CC3)cc2c1C [Example E170, 2-[(1-{4-[(5-chloropyridin-2-yl)oxy]benzoyl}piperidin-4-yl)methyl]-N-(2-methoxy-ethyl)-4-methyl-2H-indazole-5-carboxamide] | > 50 nM
COCCNC(=O)c1ccc2nn(CC3CCN(C(=O)c4ccc(Oc5ccc(F)cc5F)cc4)CC3)cc2c1C [Example E171, 2-({1-[4-(2,4-difluorophenoxy)benzoyl]piperidin-4-yl}methyl)-N-(2-methoxyethyl)-4-methyl-2H-indazole-5-carboxamide] | > 50 nM
COCCNC(=O)c1ccc2nn(CC3CCN(C(=O)c4ccc(Oc5ccc(F)c(F)c5)cc4)CC3)cc2c1C [Example E172, 2-({1-[4-(3,4-difluorophenoxy)benzoyl]piperidin-4-yl}methyl)-N-(2-methoxyethyl)-4-methyl-2H-indazole-5-carboxamide] | > 50 nM
COCCNC(=O)c1ccc2nn(CC3CCN(C(=O)c4ccc(-c5ccc(C(F)(F)F)cc5)cc4)CC3)cc2c1C [Example E173, N-(2-methoxyethyl)-4-methyl-2-[(1-{[4′-(trifluoromethyl)biphenyl-4-yl]carbonyl}-piperidin-4-yl)methyl]-2H-indazole-5-carboxamide] | > 50 nM
COCCNC(=O)c1ccc2nn(CC3CCN(C(=O)c4ccc(Oc5cccc(F)c5)cc4)CC3)cc2c1C [Example E174, 2-({1-[4-(3-fluorophenoxy)benzoyl]piperidin-4-yl}methyl)-N-(2-methoxyethyl)-4-methyl-2H-indazole-5-carboxamide] | > 50 nM
COCCNC(=O)c1ccc2nn(CC3CCN(C(=O)c4ccc(OC(C)C)cc4F)CC3)cc2c1C [Example E175, 2-{[1-(2-fluoro-4-isopropoxybenzoyl)piperidin-4-yl]methyl}-N-(2-methoxyethyl)-4-methyl-2H-indazole-5-carboxamide] | > 50 nM
COCCNC(=O)c1ccc2nn(CC3CCN(C(=O)c4ccc(-c5ccc(C)c(C)c5)cc4F)CC3)cc2c1C [Example E176, 2-({1-[(3-fluoro-3′,4′-dimethylbiphenyl-4-yl)carbonyl]piperidin-4-yl}methyl)-N-(2-methoxyethyl)-4-methyl-2H-indazole-5-carboxamide] | > 50 nM
COCCNC(=O)c1ccc2nn(CC3CCN(C(=O)c4ccc(-c5ccc(OC)cc5F)cc4F)CC3)cc2c1C [Example E177, 2-({1-[(2′,3-difluoro-4′-methoxybiphenyl-4-yl)carbonyl]piperidin-4-yl}methyl)-N-(2-methoxyethyl)-4-methyl-2H-indazole-5-carboxamide] | > 50 nM
COCCNC(=O)c1ccc2nn(CC3CCN(C(=O)c4ccc(OC(F)F)cc4)CC3)cc2c1C [Example E178, 2-({1-[4-(difluoromethoxy)benzoyl]piperidin-4-yl}methyl)-N-(2-methoxyethyl)-4-methyl-2H-indazole-5-carboxamide] | > 50 nM
COCCNC(=O)c1ccc2nn(CC3CCN(C(=O)c4ccc(Oc5ccccc5F)cc4)CC3)cc2c1C [Example E179, 2-({1-[4-(2-fluorophenoxy)benzoyl]piperidin-4-yl}methyl)-N-(2-methoxyethyl)-4-methyl-2H-indazole-5-carboxamide] | > 50 nM
COCCNC(=O)c1ccc2nn(CC3CCN(C(=O)c4ccc(-c5ccc(C#N)cc5C)cc4)CC3)cc2c1C [Example E180, 2-({1-[(4′-cyano-2′-methylbiphenyl-4-yl)carbonyl]piperidin-4-yl}methyl)-N-(2-methoxyethyl)-4-methyl-2H-indazole-5-carboxamide] | > 50 nM

The next lines start with the values.

IC50 | SMILES
> 50 nM | COCCNC(=O)c1ccc2nn(CC3CCN(C(=O)c4ccc(-c5ccc(Cl)cn5)cc4)CC3)cc2c1C [Example E181, 2-({1-[4-(5-chloropyridin-2-yl)benzoyl]piperidin-4-yl}methyl)-N-(2-methoxyethyl)-4-methyl-2H-indazole-5-carboxamide]
> 50 nM | COCCNC(=O)c1ccc2nn(CC3CCN(C(=O)c4ccc(-c5cccc(C(F)(F)F)n5)cc4)CC3)cc2c1C [Example E182, N-(2-methoxyethyl)-4-methyl-2-[(1-{4-[6-(trifluoromethyl)pyridin-2-yl]benzoyl}-piperidin-4-yl)methyl]-2H-indazole-5-carboxamide]
> 50 nM | COCCNC(=O)c1ccc2nn(CC3CCN(C(=O)c4ccc(-c5ccc(OC)cc5C)cc4)CC3)cc2c1C [Example E183, N-(2-methoxyethyl)-2-({1-[(4′-methoxy-2′-methylbiphenyl-4-yl)carbonyl]piperidin-4-yl}methyl)-4-methyl-2H-indazole-5-carboxamide]
> 50 nM | COCCNC(=O)c1ccc2nn(CC3CCN(C(=O)c4ccc(-c5ccc(Cl)cc5C)cc4)CC3)cc2c1C [Example E184, 2-({1-[(4′-chloro-2′-methylbiphenyl-4-yl)carbonyl]piperidin-4-yl}methyl)-N-(2-methoxyethyl)-4-methyl-2H-indazole-5-carboxamide]
> 50 nM | COCCNC(=O)c1ccc2nn(CC3CCN(C(=O)c4ccc(-c5ccc(C(C)(C)C#N)cc5)cc4)CC3)cc2c1C [Example E185, 2-[(1-{[4′-(2-cyanopropan-2-yl)biphenyl-4-yl]carbonyl}piperidin-4-yl)methyl]-N-(2-methoxyethyl)-4-methyl-2H-indazole-5-carboxamide]
> 50 nM | COCCNC(=O)c1ccc2nn(CC3CCN(C(=O)c4ccc(-c5ccc(OC)cn5)cc4)CC3)cc2c1C [Example E186, N-(2-methoxyethyl)-2-({1-[4-(5-methoxypyridin-2-yl)benzoyl]piperidin-4-yl}methyl)-4-methyl-2H-indazole-5-carboxamide]
> 50 nM | COCCNC(=O)c1ccc2nn(CC3CCN(C(=O)c4ccc(-c5ccc(C(F)(F)F)nc5)cc4)CC3)cc2c1C [Example E187, N-(2-methoxyethyl)-4-methyl-2-[(1-{4-[6-(trifluoromethyl)pyridin-3-yl]benzoyl}-piperidin-4-yl)methyl]-2H-indazole-5-carboxamide]
> 50 nM | COCCNC(=O)c1ccc2nn(CC3CCN(C(=O)c4ccc(-c5ccc(OC)nc5)cc4)CC3)cc2c1C [Example E188, N-(2-methoxyethyl)-2-({1-[4-(6-methoxypyridin-3-yl)benzoyl]piperidin-4-yl}methyl)-4-methyl-2H-indazole-5-carboxamide]
> 50 nM | COCCNC(=O)c1ccc2nn(CC3CCN(C(=O)c4ccc(-c5ccc(F)cc5C)cc4)CC3)cc2c1C [Example E189, 2-({1-[(4′-fluoro-2′-methylbiphenyl-4-yl)carbonyl]piperidin-4-yl}methyl)-N-(2-methoxyethyl)-4-methyl-2H-indazole-5-carboxamide]
> 50 nM | COCCNC(=O)c1ccc2nn(CC3CCN(C(=O)c4ccc(-c5ccc(C)nc5)cc4)CC3)cc2c1C [Example E190, N-(2-methoxyethyl)-4-methyl-2-({1-[4-(6-methylpyridin-3-yl)benzoyl]piperidin-4-yl}methyl)-2H-indazole-5-carboxamide]
> 50 nM | COCCNC(=O)c1ccc2nn(CC3CCN(C(=O)c4ccc(-c5cccc(OC)n5)cc4)CC3)cc2c1C [Example E191, N-(2-methoxyethyl)-2-({1-[4-(6-methoxypyridin-2-yl)benzoyl]piperidin-4-yl}methyl)-4-methyl-2H-indazole-5-carboxamide]
> 50 nM | COCCNC(=O)c1ccc2nn(CC3CCN(C(=O)c4ccc(-c5ccc(F)cc5OC)cc4)CC3)cc2c1C [Example E193, 2-({1-[(4′-fluoro-2′-methoxybiphenyl-4-yl)carbonyl]piperidin-4-yl}methyl)-N-(2-methoxyethyl)-4-methyl-2H-indazole-5-carboxamide]
> 50 nM | COCCNC(=O)c1ccc2nn(CC3CCN(C(=O)c4ccc(-c5ccc(Cl)cc5OC)cc4)CC3)cc2c1C [Example E194, 2-({1-[(4′-chloro-2′-methoxybiphenyl-4-yl)carbonyl]piperidin-4-yl}methyl)-N-(2-methoxyethyl)-4-methyl-2H-indazole-5-carboxamide]
> 50 nM | COCCNC(=O)c1ccc2nn(CC3CCN(C(=O)c4ccc(-c5cnc(C(F)(F)F)nc5)cc4)CC3)cc2c1C [Example E195, N-(2-methoxyethyl)-4-methyl-2-[(1-{4-[2-(trifluoromethyl)pyrimidin-5-yl]benzoyl}-piperidin-4-yl)methyl]-2H-indazole-5-carboxamide]
> 50 nM | COCCNC(=O)c1ccc2nn(CC3CCN(C(=O)c4ccc(-c5ccc(Cl)cc5F)cc4)CC3)cc2c1C [Example E196, 2-({1-[(4′-chloro-2′-fluorobiphenyl-4-yl)carbonyl]piperidin-4-yl}methyl)-N-(2-methoxy-ethyl)-4-methyl-2H-indazole-5-carboxamide]
> 50 nM | COCCNC(=O)c1ccc2nn(CC3CCN(C(=O)c4ccc(-c5ccc(F)cc5Cl)cc4)CC3)cc2c1C [Example E197, 2-({1-[(2′-chloro-4′-fluorobiphenyl-4-yl)carbonyl]piperidin-4-yl}methyl)-N-(2-methoxy-ethyl)-4-methyl-2H-indazole-5-carboxamide]
